The results in this text go back to patent publication US12172990B2 (Constellation Pharmaceuticals, Inc., priority 2018, dated 2024).

Experiment [1] has as its target full length human TREX1 (Homo sapiens (Human), UniProt Q9NSU2). The experiment can be described thus: TREX1 Biochemical Assay (fluorescence assay measuring degradation of dsDNA substrate). To be noted: 150 pM TREX1, 60 nM dsDNA substrate, 25 minutes at room temperature. The method, then:
Degradation of the dsDNA liberates free fluorophore to produce a fluorescent signal. Specifically, 7.5 μL of N-terminally His-Tev tagged full length human TREX1 (expressed in E. coli and purified in house) in reaction buffer (50 mM Tris (pH 7.4), 150 mM NaCl, 2 mM DTT, 0.1 mg/mL BSA, 0.01% (v/v) Tween-20 and 100 mM MgCl2 were added to a 384-well Black ProxiPlate Plus (Perkin Elmer) which already contained compound (150 nL) at varying concentrations as a 10 point dose-response in DMSO. To this was added 7.5 μL of dsDNA substrate (Strand A: 5′ TEX615/GCT AGG CAG 3′; Strand B: 5′ CTG CCT AGC/IAbRQSp (Integrated DNA Technologies)) in reaction buffer. Final concentrations were 150 pM TREX1, 60 nM dsDNA substrate in reaction buffer with 1.0% DMSO (v/v). After 25 minutes at room temperature, reactions were quenched by the addition of 5 μL of stop buffer (same as reaction buffer plus 200 mM EDTA). Final concentrations in the quenched reaction were 112.5 pM TREX1, 45 nM DNA and 50 mM EDTA in a volume of 20 μL. After a 5-minute incubation at room temperature, plates were read in a laser sourced Envision (Perkin-Elmer), measuring fluorescence at 615 nm following excitation w/570 nm light. IC50 values were calculated by comparing the measured fluorescence at 615 nm ratio relative to control wells pre-quenched w/stop buffer (100% inhibition) and no inhibitor (0% inhibition) controls as using non-linear least square four parameter fits and either Genedata or GraphPad Prism (GraphPad Software, Inc.).

The target in experiment [2] is human TREX2 (residues M44-A279) (Homo sapiens (Human), UniProt Q9BQ50). Kind of experiment: TREX2 Biochemical Assay (fluorescence assay measuring degradation of dsDNA substrate). The following applies: 2.5 nM TREX2, 60 nM dsDNA substrate, 25 minutes at room temperature. As for the experimental part: Degradation of the dsDNA liberates free fluorophore to produce a fluorescent signal. Specifically, 7.5 μL of N-terminally His-Tev tagged human TREX2 (residues M44-A279, expressed in E. coli and purified in house) in reaction buffer (50 mM Tris (pH 7.4), 150 mM NaCl, 2 mM DTT, 0.1 mg/mL BSA, 0.01% (v/v) Tween-20 and 100 mM MgCl2) was added to a 384-well Black ProxiPlate Plus (Perkin Elmer) which already contained compound (150 nL) at varying concentrations as a 10 point dose-response in DMSO. To this was added 7.5 μL of dsDNA substrate (Strand A: 5′ TEX615/GCT AGG CAG 3′; Strand B: 5′ CTG CCT AGC/IAbRQSp (IDT)) in reaction buffer. Final concentrations were 2.5 nM TREX2, 60 nM dsDNA substrate in reaction buffer with 1.0% DMSO (v/v). After 25 minutes at room temperature, reactions were quenched by the addition of 5 μL of stop buffer (same as reaction buffer plus 200 mM EDTA). Final concentrations in the quenched reaction mixture were […] TREX2, 45 nM DNA and 50 mM EDTA in a volume of 20 μL. After a 5-minute incubation at room temperature, plates were read in a laser sourced Envision (Perkin-Elmer), measuring fluorescence at 615 nm following excitation w/570 nm light. IC50 values were calculated by comparing the measured fluorescence at 615 nm ratio relative to control wells pre-quenched w/stop buffer (100% inhibition) and no inhibitor (0% inhibition) controls as using non-linear least square four parameter fits and either Genedata or GraphPad Prism (GraphPad Software, Inc.).
human TREX2 (residues M44-A279), sequence (Q9BQ50 whole entry, the tested form may be a part): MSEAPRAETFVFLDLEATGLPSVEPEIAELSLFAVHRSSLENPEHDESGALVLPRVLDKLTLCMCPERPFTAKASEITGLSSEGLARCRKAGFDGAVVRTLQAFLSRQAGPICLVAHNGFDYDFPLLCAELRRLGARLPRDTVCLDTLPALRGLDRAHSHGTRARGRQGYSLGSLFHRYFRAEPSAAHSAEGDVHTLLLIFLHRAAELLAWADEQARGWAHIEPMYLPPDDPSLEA

full length human TREX1, sequence (Q9NSU2 whole entry): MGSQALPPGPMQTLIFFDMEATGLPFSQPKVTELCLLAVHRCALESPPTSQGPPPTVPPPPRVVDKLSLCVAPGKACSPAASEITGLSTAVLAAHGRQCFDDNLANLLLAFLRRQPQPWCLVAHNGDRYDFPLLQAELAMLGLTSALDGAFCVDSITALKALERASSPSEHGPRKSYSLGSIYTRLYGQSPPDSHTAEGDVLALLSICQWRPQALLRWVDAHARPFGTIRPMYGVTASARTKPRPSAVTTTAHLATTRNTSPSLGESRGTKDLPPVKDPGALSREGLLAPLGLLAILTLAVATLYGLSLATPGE

The IC50 is the concentration at which inhibition is half-maximal. Lower therefore signals greater potency in that assay. Turning to `Cc1cc(Br)cc(-c2nc(C(=O)Nc3cnoc3)c(O)c(=O)n2C)c1` [Example 1, 2-(3-bromo-5-methylphenyl)-5-hydroxy-N-(isoxazol-4-yl)-1-methyl-6-oxo-1,6-dihydropyrimidine-4-carboxamide], the figures for the concentration for half-maximal inhibition (IC50) in experiment [1] and in experiment [2] were less than 0.1 µM and 1 to 10 µM, respectively.

On to `Cn1c(C2CCC2)nc(C(=O)Nc2cnoc2)c(O)c1=O` [Example 2, 2-cyclobutyl-5-hydroxy-N-(isoxazol-4-yl)-1-methyl-6-oxo-1,6-dihydropyrimidine-4-carboxamide], for which the IC50 fell in the range of 0.1 to 1 µM in experiment [1] and 10 to 100 µM in experiment [2].

On to `Cn1c(C2CC2)nc(C(=O)Nc2cnoc2)c(O)c1=O` [Example 3, 2-cyclopropyl-5-hydroxy-N-(isoxazol-4-yl)-1-methyl-6-oxo-1,6-dihydropyrimidine-4-carboxamide], for which the figures for the half-maximal inhibitory concentration (IC50) in experiment [1] and in experiment [2] were 0.1 to 1 µM and 10 to 100 µM, respectively.

In the case of `Cc1ccc(Br)cc1-c1nc(C(=O)Nc2cnoc2)c(O)c(=O)n1C` [Example 4, 2-(5-bromo-2-methylphenyl)-5-hydroxy-N-(isoxazol-4-yl)-1-methyl-6-oxo-1,6-dihydropyrimidine-4-carboxamide], the values for the IC50 in experiment [1] and in experiment [2] were 0.1 to 1 µM and 1 to 10 µM, respectively.

Consider `Cc1c(Br)cccc1-c1nc(C(=O)Nc2cnoc2)c(O)c(=O)n1C` [Example 5, 2-(3-bromo-2-methylphenyl)-5-hydroxy-N-(isoxazol-4-yl)-1-methyl-6-oxo-1,6-dihydropyrimidine-4-carboxamide], for which the figures for the IC50 in experiment [1] and in experiment [2] were less than 0.1 µM and 1 to 10 µM, respectively.

On to `Cn1c(Cc2ccccc2)nc(C(=O)Nc2cnoc2)c(O)c1=O` [Example 6, 2-benzyl-5-hydroxy-N-(isoxazol-4-yl)-1-methyl-6-oxo-1,6-dihydropyrimidine-4-carboxamide], for which the results for the IC50 in experiment [1] and in experiment [2] were 0.1 to 1 µM and 10 to 100 µM, respectively.

Regarding `Cn1c(C2(NC(=O)OCc3ccccc3)CC2)nc(C(=O)Nc2cnoc2)c(O)c1=O` [Example 7, benzyl (1-(5-hydroxy-4-(isoxazol-4-ylcarbamoyl)-1-methyl-6-oxo-1,6-dihydropyrimidin-2-yl)cyclopropyl)carbamate], the IC50 in experiment [1] lay in the range of 0.1 to 1 µM; in experiment [2], 10 to 100 µM.

Turning to `Cn1c(-c2ccccc2)nc(C(=O)Nc2cnoc2)c(O)c1=O` [Example 8, 5-hydroxy-N-(isoxazol-4-yl)-1-methyl-6-oxo-2-phenyl-1,6-dihydropyrimidine-4-carboxamide], the IC50 is 0.1 to 1 µM in experiment [1] and 10 to 100 µM in experiment [2].

`Cn1c(-c2ccccc2Br)nc(C(=O)Nc2cnoc2)c(O)c1=O` [Example 9, 2-(2-bromophenyl)-5-hydroxy-N-(isoxazol-4-yl)-1-methyl-6-oxo-1,6-dihydropyrimidine-4-carboxamide]: the figures for the IC50 in experiment [1] and in experiment [2] were 0.1 to 1 µM and 10 to 100 µM, respectively.

For `Cn1c(-c2cccc(Br)c2)nc(C(=O)Nc2cnoc2)c(O)c1=O` [Example 10, 2-(3-bromophenyl)-5-hydroxy-N-(isoxazol-4-yl)-1-methyl-6-oxo-1,6-dihydropyrimidine-4-carboxamide], the 50% inhibitory concentration (IC50) is less than 0.1 µM in experiment [1] and 1 to 10 µM in experiment [2].

On to `Cn1c(-c2ccc(Br)cc2)nc(C(=O)Nc2cnoc2)c(O)c1=O` [Example 11, 2-(4-bromophenyl)-5-hydroxy-N-(isoxazol-4-yl)-1-methyl-6-oxo-1,6-dihydropyrimidine-4-carboxamide], for which the values for the IC50 in experiment [1] and in experiment [2] were 0.1 to 1 µM and 10 to 100 µM, respectively.

Take `Cn1c(C2CCN(C(=O)OC(C)(C)C)CC2)nc(C(=O)Nc2cnoc2)c(O)c1=O` [Example 12, tert-butyl 4-(5-hydroxy-4-(isoxazol-4-ylcarbamoyl)-1-methyl-6-oxo-1,6-dihydropyrimidin-2-yl)piperidine-1-carboxylate]: the IC50 was 1 to 10 µM in experiment [1] and 10 to 100 µM in experiment [2].

For the compound `Cn1c(C2CCCN(C(=O)OC(C)(C)C)C2)nc(C(=O)Nc2cnoc2)c(O)c1=O` (stereo not shown) [Example 13, tert-butyl 3-(5-hydroxy-4-(isoxazol-4-ylcarbamoyl)-1-methyl-6-oxo-1,6-dihydropyrimidin-2-yl)piperidine-1-carboxylate], the IC50 in experiment [1] lay in the range of 0.1 to 1 µM; in experiment [2] it was 10 to 100 µM.

Take `Cn1c(C2CCCCN2C(=O)OC(C)(C)C)nc(C(=O)Nc2cnoc2)c(O)c1=O` (stereo not shown) [Example 14, tert-butyl 2-(5-hydroxy-4-(isoxazol-4-ylcarbamoyl)-1-methyl-6-oxo-1,6-dihydropyrimidin-2-yl)piperidine-1-carboxylate]: the IC50 in experiment [1] was 0.1 to 1 µM; in experiment [2], 1 to 10 µM.

In the case of `Cn1c(-c2cccc(Br)c2OCCO)nc(C(=O)Nc2cnoc2)c(O)c1=O` [Example 15, 2-(3-bromo-2-(2-hydroxyethoxy)phenyl)-5-hydroxy-N-(isoxazol-4-yl)-1-methyl-6-oxo-1,6-dihydropyrimidine-4-carboxamide], the IC50 in experiment [1] is less than 0.1 µM; in experiment [2], less than 1 µM.

As for `CC(C)(C)OC(=O)N1CCCC(c2nc(C(=O)Nc3cnoc3)c(O)c(=O)[nH]2)C1` (stereo not shown) [Example 16, tert-butyl 3-(5-hydroxy-4-(isoxazol-4-ylcarbamoyl)-6-oxo-1,6-dihydropyrimidin-2-yl)piperidine-1-carboxylate], the values for the IC50 in experiment [1] and in experiment [2] were 0.1 to 1 µM and 10 to 100 µM, respectively.

With `Cn1c(CC2CCN(C(=O)OC(C)(C)C)CC2)nc(C(=O)Nc2cnoc2)c(O)c1=O` [Example 17, tert-butyl 4-((5-hydroxy-4-(isoxazol-4-ylcarbamoyl)-1-methyl-6-oxo-1,6-dihydropyrimidin-2-yl)methyl)piperidine-1-carboxylate], the IC50 lay in the range of 1 to 10 µM in experiment [1] and 10 to 100 µM in experiment [2].

Regarding `Cn1c(CC2CCCN(C(=O)OC(C)(C)C)C2)nc(C(=O)Nc2cnoc2)c(O)c1=O` (stereo not shown) [Example 18, tert-butyl 3-((5-hydroxy-4-(isoxazol-4-ylcarbamoyl)-1-methyl-6-oxo-1,6-dihydropyrimidin-2-yl)methyl)piperidine-1-carboxylate], the half-maximal inhibitory concentration (IC50) in experiment [1] was 0.1 to 1 µM; in experiment [2], 10 to 100 µM.

`Cn1c(C2CN(C(=O)OC(C)(C)C)C2)nc(C(=O)Nc2cnoc2)c(O)c1=O` [Example 19, tert-butyl 3-(5-hydroxy-4-(isoxazol-4-ylcarbamoyl)-1-methyl-6-oxo-1,6-dihydropyrimidin-2-yl)azetidine-1-carboxylate]: the IC50 in experiment [1] was 1 to 10 µM; in experiment [2] it was greater than 100 µM.

On to `Cn1c(C2(c3ccccc3)CC2)nc(C(=O)Nc2cnoc2)c(O)c1=O` [Example 20, 5-hydroxy-N-(isoxazol-4-yl)-1-methyl-6-oxo-2-(1-phenylcyclopropyl)-1,6-dihydropyrimidine-4-carboxamide], for which the results for the IC50 in experiment [1] and in experiment [2] were 0.1 to 1 µM and 10 to 100 µM, respectively.

Regarding `Cn1c(-c2ccncc2)nc(C(=O)Nc2cnoc2)c(O)c1=O` [Example 21, 5-hydroxy-N-(isoxazol-4-yl)-1-methyl-6-oxo-2-(pyridin-4-yl)-1,6-dihydropyrimidine-4-carboxamide], the half-inhibitory concentration (IC50) in experiment [1] is 1 to 10 µM; in experiment [2], greater than 100 µM.

For the compound `Cn1c(C2CCN2C(=O)OC(C)(C)C)nc(C(=O)Nc2cnoc2)c(O)c1=O` (stereo not shown) [Example 22, tert-butyl 2-(5-hydroxy-4-(isoxazol-4-ylcarbamoyl)-1-methyl-6-oxo-1,6-dihydropyrimidin-2-yl)azetidine-1-carboxylate], the IC50 in experiment [1] fell in the range of 1 to 10 µM; in experiment [2], 10 to 100 µM.

For the compound `Cn1c(C(NC(=O)OCc2ccccc2)c2ccccc2)nc(C(=O)Nc2cnoc2)c(O)c1=O` (stereo not shown) [Example 23, benzyl ((5-hydroxy-4-(isoxazol-4-ylcarbamoyl)-1-methyl-6-oxo-1,6-dihydropyrimidin-2-yl)(phenyl)methyl)carbamate], the IC50 in experiment [1] was in the range of 0.1 to 1 µM; in experiment [2], 1 to 10 µM.
